Reference: patent US4202892A, “Biocidal methyladamantyl hydrazines and pharmaceutical compositions containing them” (Teva Pharmaceutical Industries, Ltd., priority 1977, dated 1980)
Several values for one entry are separate records, joined by “and”; a condition that tells them apart may be missing. Identical values can stand only once. Counter-ions that a name gives are not always drawn.

Assays:
[1] = tested on: 4 mycoplasma (M. gallisepticum, capricolum, M. hominis, A. laidlawii); assay: organism not typed; type: cell-based; conditions: read-out: 50% inhibition of growth in liquid medium, concentration
[2] = tested on: Trypanosoma; assay: Trypanosoma in RPMI medium in vitro at 37° C.; type: cell-based; conditions: for Trypanosoma in vitro, activity score: RPMI medium, 37° C.; for active against Trypanosoma: summary
Experimental: Trypanosoma in RPMI medium in vitro at 37° C. Scoring as in b.

[3] = tested on: L. tropica promastigotes; assay: L. tropica promastigotes in Mc Coy's medium in vitro at 27° C.; type: cell-based
Experimental: (§1) A. Scoring of drug activity:
(§2) b. promastigotes in Mc Coy's medium in vitro at 27° C.
+++=no viable parasites after 24 hours
++=no viable parasites after 48 hours
+=no viable parasites after 72 hours
±=no viable parasites after 96 hours
-=viable parasites after 120 hours.

[4] = tested on: Leishmania; assay: Anti Leishmania tests (amastigotes and promastigotes), summary; type: cell-based, L. tropica
Experimental: as §1
(§3) a. amastigotes in peritoneal exudate cells in Mc Coy's medium in vitro at 37° C.
as §2

[5] = tested on: Trichophyton rubrum; assay: Antimycotic activity (human), growth on Sabouraud dextrose agar; design: key to the marks not given beside the values; conditions: 10 μg/ml
[6] = tested on: Trichophyton mentagrophytes; assay: as above; design: key to the marks not given beside the values; conditions: 10 μg/ml
[7] = tested on: Candida albicans; assay: as above; type: cell-based; design: key to the marks not given beside the values
Excerpt: Control (full growth): ++++

[8] = tested on: stereotyped behaviour (sniffing, biting, repetitive head movement); assay: Stereotyped behaviour in mice; type: in vivo, Male ICR albino mice; design: stereotyped behaviour score / Total Score (stereotyped behaviour) / Mean Score (stereotyped behaviour): scale not given here; conditions: for Total Score (stereotyped behaviour): 0-240 min; for Total Score (stereotyped behaviour) / stereotyped behaviour score / Mean Score (stereotyped behaviour): 50 mg/kg i.p.; for Total Score (stereotyped behaviour) / stereotyped behaviour score: one line per mouse, in order Mouse 1 to Mouse 4; for Mean Score (stereotyped behaviour): mean of 4 mice
Experimental: Male ICR albino mice weighing 25-30 g were put in cages with a metal grid floor, 4 in each cage. Drugs were injected intraperitoneally and stereotyped behaviour (sniffing, biting, repetitive head movement) was evaluated every 30 min.

[9] = tested on: haloperidol-induced catalepsy; assay: Antiparkinson activity: anticataleptic effect in rats (haloperidol catalepsy); type: in vivo, Male Charles River albino rats; conditions: individual rats, 80 mg/kg i.p., one line per rat
Experimental: (§4) Male Charles River albino rats, weighing 200-250 g, were used. Catalepsy was produced by haloperidol, 5 mg/kg i.p. The animals were placed with their front paws on a horizontal bar, about 10 cm above the ground, and animals were considered cataleptic if not changing posture for at least 30 sec. Cataleptic animals were injected l.p. with one of the drugs at a dose of 40-80 mg/kg. Catalepsy was estimated again at the intervals indicated.
as §4, with “rats, wighing” for “rats, weighing”, “injected i.p.” for “injected l.p.”, “mg/kg. catalepsy” for “mg/kg. Catalepsy”

[10] = tested on: L. tropica amastigotes; assay: L. tropica amastigotes in peritoneal exudate cells in Mc Coy's medium in vitro at 37° C.; type: cell-based
Experimental: as §1, §3
+++=clearance of all parasites in 24 hrs
++=clearance of all parasites in 48 hrs
+=clearance of all parasites in 72 hrs
±=partial clearance of parasites in 72 hours or more
-=no activity against parasites.

[11] = tested on: HSV-1 (Herpes Simplex); assay: Inhibition test on HSV replication; type: cell-based; conditions: Human alphaherpesvirus 1, BSC-1 cells, 10 PFU/cell; for inhibition at 25 µg/mL: 25 μg/ml; for inhibition at 50 µg/mL: 50 μg/ml; for inhibition at 100 µg/mL: 100 μg/ml
Excerpt: |INHIBITION TEST ON HSV REPLICATION |Cells |BSC-1 (Green monkey Kidney) |Virus |HSV-1 (Herpes Simplex) |Inoculum |10 PFU/cell |Medium |DMEM + 10% C.S. | Herpes | J. Levitt & Y. Becker | Virology 31, 129-134 (1967) | **% Inhibition of control infected for some time with same virus PFV with | no inhibition.

[12] = Toxic limit in the HSV replication test; type: cell-based, Green monkey; conditions: monkey, bsc-1 cells; read-out: T.L. Toxic Limit (highest concentration of compound which is completely not toxic)
Excerpt: BSC-1 (Green monkey Kidney)
*T.L. The highest concentration of compound which is completely not toxic

c1ccc(CCNNCC23CC4CC(CC(C4)C2)C3)cc1 [Example 25, 1-(Adamant-1'-ylmethyl)-2-phenethylhydrazine dihydrate]
IC50 [1]: 5 to 30 µg/mL

N=C(N)c1ccc(OCCCCCOc2ccc(C(=N)N)cc2)cc1 [Pentamidine, reference compound]
Trypanosoma in vitro, activity score ([2]; 10 μg): - (viable parasites after 120 hours.) | Trypanosoma in vitro, activity score ([2]; 100 μg): ++ (no viable parasites after 48 hours) | Leishmania promastigote, activity score ([3]; 10 μg): +++ (no viable parasites after 24 hours) | Leishmania promastigote, activity score ([3]; 100 μg): +++ (no viable parasites after 24 hours)

CN(N)CC12CC3CC(CC(C3)C1)C2 [Example 15, 1-Methyl-1-(adamant-1'-ylmethyl)hydrazine hydrochloride hydrate]
active against Leishmania [4]: active | Leishmania promastigote, activity score ([3]; 10 μg): - (viable parasites after 120 hours.) | Leishmania promastigote, activity score ([3]; 100 μg): +++ (no viable parasites after 24 hours)

C1CCN(NCC23CC4CC(CC(C4)C2)C3)CC1 [Example 8, 1-(Adamant-1'-ylmethylamino)piperidine hydrochloride]
growth of T. rubrum [5]: ++++ | growth of T. mentagrophytes [6]: ++++ | growth of C. albicans ([7]; 10 μg/ml): ++++ | growth of C. albicans ([7]; 50 μg/ml): ++++ | growth of C. albicans ([7]; 100 μg/ml): ++++ | IC50 [1]: 5 to 30 µg/mL

NC12CC3CC(CC(C3)C1)C2 [Symmetrel, reference compound]
Total Score (stereotyped behaviour) ([8]; 50 mg/kg): 17 (3×) and 13 | stereotyped behaviour score ([8]; 0 min): 0 | stereotyped behaviour score ([8]; 30 min): 1 | stereotyped behaviour score ([8]; 45 min): 1 | stereotyped behaviour score ([8]; 60 min, 50 mg/kg): 2 (2×) and 1 (2×) | stereotyped behaviour score ([8]; 90 min, 50 mg/kg): 1 (3×) and 2 | stereotyped behaviour score ([8]; 120 min): 2 | stereotyped behaviour score ([8]; 135 min): 2 | stereotyped behaviour score ([8]; 150 min): 2 | stereotyped behaviour score ([8]; 180 min): 2 | stereotyped behaviour score ([8]; 210 min, 50 mg/kg): 2 (3×) and 1 | stereotyped behaviour score ([8]; 240 min, 50 mg/kg): 2 (3×) and 0 | Mean Score (stereotyped behaviour) [8]: 16 | anticataleptic effect ([9]; in order rat 1 to rat 5): 0/4 and 2/4 and 3/4 (3×)

CNNCC12CC3CC(CC(C3)C1)C2 [Example 1, 1-(Adamant-1'-ylmethyl)-2-methylhydrazine hydrochloride]
Trypanosoma in vitro, activity score ([2]; 10 μg): ± (no viable parasites after 96 hours) | Trypanosoma in vitro, activity score ([2]; 100 μg): +++ (no viable parasites after 24 hours) | active against Trypanosoma [2]: active | active against Leishmania [4]: active | Leishmania promastigote, activity score ([3]; 10 μg): - (viable parasites after 120 hours.) | Leishmania promastigote, activity score ([3]; 100 μg): +++ (no viable parasites after 24 hours) | Leishmania amastigote, activity score ([10]; 10 μg): ± (partial clearance of parasites in 72 hours or more) | Leishmania amastigote, activity score ([10]; 100 μg): ± (partial clearance of parasites in 72 hours or more)

CN(N)CC1C2CC3CC(C2)CC1C3 (stereo not drawn) [Example 16, 1-Methyl-1-(adamant-2'-ylmethyl)hydrazine hydrochloride]
growth of C. albicans ([7]; 10 μg/ml): ++++ | growth of C. albicans ([7]; 50 μg/ml): ++++

C1CCN(NCC23CC4CC(CC(C4)C2)C3)C1 [Example 7, 1-(Adamant-1'-ylmethylamino)pyrrolidine hydrochloride]
inhibition at 25 µg/mL [11]: 72.5% | inhibition at 50 µg/mL [11]: 92% | inhibition at 75 µg/mL ([11]; 75 μg/ml): 98% | inhibition at 100 µg/mL [11]: 99.9% | Total Score (stereotyped behaviour) ([8]; hydrochloride, 50 mg/kg): 17 and 11 and 6 and 3 | stereotyped behaviour score ([8]; 0 min): 0 | stereotyped behaviour score ([8]; 30 min, hydrochloride, 50 mg/kg): 2 and 0 (3×) | stereotyped behaviour score ([8]; 45 min, hydrochloride, 50 mg/kg): 2 and 0 (2×) and 1 | stereotyped behaviour score ([8]; 60 min, hydrochloride, 50 mg/kg): 2 and 0 (3×) | stereotyped behaviour score ([8]; 90 min, hydrochloride, 50 mg/kg): 2 (2×) and 0 (2×) | stereotyped behaviour score ([8]; 120 min, hydrochloride, 50 mg/kg): 2 (2×) and 0 (2×) | stereotyped behaviour score ([8]; 135 min, hydrochloride, 50 mg/kg): 2 (2×) and 0 (2×) | stereotyped behaviour score ([8]; 150 min, hydrochloride, 50 mg/kg): 2 (2×) and 1 and 0 | stereotyped behaviour score ([8]; 180 min, hydrochloride, 50 mg/kg): 1 (3×) and 0 | stereotyped behaviour score ([8]; 210 min, hydrochloride, 50 mg/kg): 1 (2×) and 2 (2×) | stereotyped behaviour score ([8]; 240 min): 1 | Mean Score (stereotyped behaviour) [8]: 9.25 | found to be active ([8]; summary of the CNS tests): active | MNTC [12]: 50 µg/mL | anticataleptic effect ([9]; in order rat 1 to rat 5, hydrochloride): 1/4 and 0/4 (3×) and 3/4 | IC50 [1]: 5 to 30 µg/mL

c1ccc(CNNCC23CC4CC(CC(C4)C2)C3)cc1 [Example 3, 1-(Adamant-1'-ylmethyl)-2-benzylhydrazine hydrochloride]
growth of C. albicans ([7]; 10 μg/ml): ++++ | growth of C. albicans ([7]; 50 μg/ml): ++++ | growth of C. albicans ([7]; 100 μg/ml): ++++ | IC50 [1]: 5 to 30 µg/mL

C1CCN(NCC2C3CC4CC(C3)CC2C4)C1 (stereo not drawn) [Example 31, 1-(Adamant-2'-ylmethylamino)pyrrolidine hydrochloride]
inhibition at 25 µg/mL [11]: 51% | inhibition at 50 µg/mL [11]: 91% | inhibition at 100 µg/mL [11]: 97%

CC(C)N(N)CC12CC3CC(CC(C3)C1)C2 [Example 38, 1-(Adamant-1'-ylmethyl)-1-isopropylhydrazine hydrochloride]
growth of T. rubrum [5]: ++++ | growth of T. mentagrophytes [6]: ++++ | growth of C. albicans ([7]; 10 μg/ml): ++++ | growth of C. albicans ([7]; 50 μg/ml): ++++ | growth of C. albicans ([7]; 100 μg/ml): ++++ | IC50 [1]: 5 to 30 µg/mL

NNCC12CC3CC(CC(C3)C1)C2 [Example 14, (Adamant-1-ylmethyl)hydrazine hydrochloride]
Trypanosoma in vitro, activity score ([2]; 10 μg): +++ (no viable parasites after 24 hours) | Trypanosoma in vitro, activity score ([2]; 100 μg): +++ (no viable parasites after 24 hours) | active against Trypanosoma [2]: active | active against Leishmania [4]: active | Leishmania amastigote, activity score ([10]; 10 μg): ± (partial clearance of parasites in 72 hours or more) | Leishmania amastigote, activity score ([10]; 100 μg): ++ (clearance of all parasites in 48 hrs)
